Where only a bound is given, the exact number is not on record here.

For assay [1], the target named is T1, NLRP3 (Homo sapiens, UniProt Q96P20). The assay can be described thus: Human whole blood IL1β release assay. Particulars: LPS 1 μg/ml, nigericin 10 μM, IL-1β AlphaLisa, 10 μM top dose (Example 2: top dose of 30 μM), read-out: HWB IC50. It counts as cell-based. A digest of the protocol:
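Healthy-donor heparinised human whole blood with 1 μg/ml LPS, compound (8-point half-log dilution, 10 μM top dose unless stated; 0.1% DMSO vehicle) for 3 h at 37 °C, then nigericin 10 μM final for 1 h. Supernatant IL-1β by AlphaLISA; IC50 from 4-parameter variable-slope fit.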
A general note: In Alpha technology, singlet oxygen from a donor bead excites a nearby acceptor bead.

Assay [2] addresses T1, NLRP3. Description: THP-1 cells pyroptosis assay. Type of assay: cell-based. Particulars: LPS 1.0 μg/ml, nigericin 5 μM, resazurin readout, 10 μM top dose (Example 2: top dose of 30 μM). The arrangement: Seed THP-1 cells (25,000 cells/well) containing 1.0 μg/ml LPS; host or cells: THP-1. A digest of the protocol: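 THP-1 cells (25,000/well) primed with 1 μg/ml LPS in serum-free RPMI, treated with compound (8-point dilution, 10 μM top unless stated; 0.1% DMSO) 3 h at 37°C, then nigericin 5 μM 1 h. Viability read by resazurin (100 μM, 1-2 h) fluorescence; IC50 from 4-parameter fit.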
(Alamar Blue is a resazurin reagent that responds to reducing activity.)

T1 sequence (Q96P20 whole entry): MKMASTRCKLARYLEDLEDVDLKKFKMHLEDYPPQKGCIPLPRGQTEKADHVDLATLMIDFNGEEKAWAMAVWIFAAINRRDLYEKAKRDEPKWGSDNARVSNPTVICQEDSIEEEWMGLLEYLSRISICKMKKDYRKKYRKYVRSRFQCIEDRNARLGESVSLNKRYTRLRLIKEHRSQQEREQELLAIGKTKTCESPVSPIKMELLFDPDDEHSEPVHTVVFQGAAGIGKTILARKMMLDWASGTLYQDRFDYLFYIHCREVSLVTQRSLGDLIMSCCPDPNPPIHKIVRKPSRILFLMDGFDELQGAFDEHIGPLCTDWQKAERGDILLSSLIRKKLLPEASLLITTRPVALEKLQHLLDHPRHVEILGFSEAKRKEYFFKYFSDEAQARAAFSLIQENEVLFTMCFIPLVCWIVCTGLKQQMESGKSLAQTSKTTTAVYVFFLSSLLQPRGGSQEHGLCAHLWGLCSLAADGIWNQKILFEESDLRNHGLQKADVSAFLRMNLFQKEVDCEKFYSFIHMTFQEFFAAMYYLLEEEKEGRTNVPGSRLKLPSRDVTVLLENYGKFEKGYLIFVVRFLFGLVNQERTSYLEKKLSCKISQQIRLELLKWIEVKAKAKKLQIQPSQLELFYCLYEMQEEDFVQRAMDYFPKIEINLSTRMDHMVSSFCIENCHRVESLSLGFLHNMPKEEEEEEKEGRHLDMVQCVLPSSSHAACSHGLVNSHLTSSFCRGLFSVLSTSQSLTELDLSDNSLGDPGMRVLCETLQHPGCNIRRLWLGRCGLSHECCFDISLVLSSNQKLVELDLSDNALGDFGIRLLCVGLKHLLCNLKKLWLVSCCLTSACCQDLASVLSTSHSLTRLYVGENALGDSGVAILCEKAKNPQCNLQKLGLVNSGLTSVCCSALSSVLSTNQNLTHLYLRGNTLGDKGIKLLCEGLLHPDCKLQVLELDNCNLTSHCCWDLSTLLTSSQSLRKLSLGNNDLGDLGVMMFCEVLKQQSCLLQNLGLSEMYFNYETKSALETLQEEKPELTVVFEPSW

The term IC50 denotes the concentration that inhibits the measured activity by half. Regarding `[2H]C([2H])([2H])Oc1cc(-c2ccc3c(c2Nc2nnc(S(=O)(=O)N4CCC(N(C)C)CC4)[nH]2)CCO3)ccn1` [Example 218, 1-((5-((5-(2-(methoxy-d)pyridin-4-yl)-2,3-dihydrobenzofuran-4-yl)amino)-4H-1,2,4-triazol-3-yl)sulfonyl)-N,N-dimethylpiperidin-4-amine], the IC50 at NLRP3 [1] and at NLRP3 [2] was no more than 500 nM in each case.

Consider `CN(C)C1CCN(S(=O)(=O)c2nnc(Nc3c(-c4ccncc4)ccc4c3CCC4)[nH]2)CC1` [Example 219, N,N-dimethyl-1-((5-((5-(pyridin-4-yl)-2,3-dihydro-1H-inden-4-yl)amino)-4H-1,2,4-triazol-3-yl)sulfonyl)piperidin-4-amine], for which the values for the IC50 at NLRP3 [1] and against NLRP3 [2] were no more than 1000 nM and no more than 500 nM, respectively.

On to `CN(C)C1CCN(S(=O)(=O)c2nnc(Nc3c(-c4ccncc4)ccc4c3CCO4)[nH]2)CC1` [Example 220, N,N-dimethyl-1-((5-((5-(pyridin-4-yl)-2,3-dihydrobenzofuran-4-yl)amino)-4H-1,2,4-triazol-3-yl)sulfonyl)piperidin-4-amine], for which the figures for the IC50 on NLRP3 [1] and against NLRP3 [2] were no more than 5000 nM and no more than 1000 nM, respectively.

As for `Cc1cc(-c2ccc3c(c2Nc2nnc(S(=O)(=O)N4CCC(N(C)C)CC4)[nH]2)CCC3)ccn1` [Example 221, N,N-dimethyl-1-((5-((5-(2-methylpyridin-4-yl)-2,3-dihydro-1H-inden-4-yl)amino)-4H-1,2,4-triazol-3-yl)sulfonyl)piperidin-4-amine], the results for the IC50 on NLRP3 [1] and on NLRP3 [2] were no more than 5000 nM and no more than 500 nM, respectively.

Take `CN(C)C1CCN(S(=O)(=O)c2nnc(Nc3c(-c4ccnc(OC(F)F)c4)ccc4c3CCC4)[nH]2)CC1` [Example 222, 1-((5-((5-(2-(difluoromethoxy)pyridin-4-yl)-2,3-dihydro-1H-inden-4-yl)amino)-4H-1,2,4-triazol-3-yl)sulfonyl)-N,N-dimethylpiperidin-4-amine]: the IC50 at NLRP3 [1] is no more than 1000 nM; against NLRP3 [2], no more than 500 nM.

As to `CN(C)C1CCN(S(=O)(=O)c2nnc(Nc3c4c(c(F)c5c3CCC5)CCC4)[nH]2)CC1` [Example 224, 1-((5-((8-fluoro-1,2,3,5,6,7-hexahydro-s-indacen-4-yl)amino)-4H-1,2,4-triazol-3-yl)sulfonyl)-N,N-dimethylpiperidin-4-amine], the IC50 at NLRP3 [1] is no more than 1000 nM; at NLRP3 [2] it was no more than 500 nM.

As to `CN(C)C1CCN(S(=O)(=O)c2nnc(Nc3c(-c4ccnc(OC(F)F)c4)ccc4c3CCO4)[nH]2)CC1` [Example 225, 1-((5-((5-(2-(difluoromethoxy)pyridin-4-yl)-2,3-dihydrobenzofuran-4-yl)amino)-4H-1,2,4-triazol-3-yl)sulfonyl)-N,N-dimethylpiperidin-4-amine], the IC50 at NLRP3 [1] is no more than 1000 nM; on NLRP3 [2] it was no more than 500 nM.

On to `[2H]C([2H])([2H])Oc1cc(-c2ccc3c(c2Nc2nnc(S(=O)(=O)N4CCC(N(C)C)CC4)[nH]2)CCC3)ccn1` [Example 227, 1-((5-((5-(2-(methoxy-d3)pyridin-4-yl)-2,3-dihydro-1H-inden-yl)amino)-4H-1,2,4-triazol-3-yl)sulfonyl)-N,N-dimethylpiperidin-4-amine], for which the IC50 on NLRP3 [1] and at NLRP3 [2] was no more than 500 nM in each case.

Turning to `COc1cc(-c2ccc3c(c2Nc2nnc(S(=O)(=O)N4CCC(N(C)C)CC4)[nH]2)CCC3)ccn1` [Example 228, 1-((5-((5-(2-methoxypyridin-4-yl)-2,3-dihydro-1H-inden-4-yl)amino)-4H-1,2,4-triazol-3-yl)sulfonyl)-N,N-dimethylpiperidin-4-amine], the IC50 at NLRP3 [1] is no more than 1000 nM; at NLRP3 [2], no more than 500 nM.

Regarding `CC(C)(O)[C@H]1CCN(S(=O)(=O)c2nnc(Nc3c4c(cc5c3CCC5)CCC4)[nH]2)C1` [Example 233, (S)-2-(1-((5-((1,2,3,5,6,7-hexahydro-s-indacen-4-yl)amino)-4H-1,2,4-triazol-3-yl)sulfonyl)pyrrolidin-3-yl)propan-2-ol], the IC50 is no more than 5000 nM at NLRP3 [1] and no more than 500 nM on NLRP3 [2].

In the case of `O=S(=O)(c1nnc(Nc2c3c(cc4c2CCC4)CCC3)[nH]1)N1CC2(CCN(CCF)C2)C1` [Example 239, 5-((6-(2-fluoroethyl)-2,6-diazaspiro[3.4]octan-2-yl)sulfonyl)-N-(1,2,3,5,6,7-hexahydro-s-indacen-4-yl)-4H-1,2,4-triazol-3-amine], the IC50 on NLRP3 [1] was no more than 5000 nM; against NLRP3 [2], no more than 1000 nM.

In the case of `CCN1CCC2(C1)CN(S(=O)(=O)c1nnc(Nc3c4c(cc5c3CCC5)CCC4)[nH]1)C2` [Example 240, 5-((6-ethyl-2,6-diazaspiro[3.4]octan-2-yl)sulfonyl)-N-(1,2,3,5,6,7-hexahydro-s-indacen-4-yl)-4H-1,2,4-triazol-3-amine], the IC50 at NLRP3 [1] and on NLRP3 [2] was no more than 500 nM each time.

On to `CC(C)c1cc(F)cc(C(C)C)c1Nc1nc(S(=O)(=O)N2CCC(CN(C)C)C2)n[nH]1` (stereo not drawn) [Example 241, 3-((3-((dimethylamino)methyl)pyrrolidin-1-yl)sulfonyl)-N-(4-fluoro-2,6-diisopropylphenyl)-1H-1,2,4-triazol-5-amine], for which the values for the IC50 at NLRP3 [1] and against NLRP3 [2] were no more than 1000 nM and no more than 500 nM, respectively.

For the molecule `CC(C)c1cc(F)cc(C(C)C)c1Nc1nnc(S(=O)(=O)N2CC3(CCN(C)C3)C2)[nH]1` [Example 242, N-(4-fluoro-2,6-diisopropylphenyl)-5-((6-methyl-2,6-diazaspiro[3.4]octan-2-yl)sulfonyl)-4H-1,2,4-triazol-3-amine], the IC50 at NLRP3 [1] and on NLRP3 [2] was no more than 500 nM in each case.

For `O=S(=O)(c1nnc(Nc2c3c(cc4c2CCC4)CCC3)[nH]1)N1CCC2(CCCN2C2CC2)CC1` [Example 246, 5-((1-cyclopropyl-1,8-diazaspiro[4.5]decan-8-yl)sulfonyl)-N-(1,2,3,5,6,7-hexahydro-s-indacen-4-yl)-4H-1,2,4-triazol-3-amine], the IC50 was no more than 5000 nM at NLRP3 [1] and no more than 1000 nM on NLRP3 [2].

Turning to `COc1cc(-c2cc(F)cc(C(C)C)c2Nc2nnc(S(=O)(=O)N3CC4(CCN(C)C4)C3)[nH]2)ccn1` [Example 248, N-(4-fluoro-2-isopropyl-6-(2-methoxypyridin-4-yl)phenyl)-5-((6-methyl-2,6-diazaspiro[3.4]octan-2-yl)sulfonyl)-4H-1,2,4-triazol-3-amine], the IC50 on NLRP3 [1] is no more than 1000 nM; on NLRP3 [2], no more than 500 nM.

`COc1cc(-c2cc(F)cc(C(C)C)c2Nc2nnc(S(=O)(=O)N3CCC4(CCN4C)CC3)[nH]2)ccn1` [Example 249, N-(4-fluoro-2-isopropyl-6-(2-methoxypyridin-4-yl)phenyl)-5-((1-methyl-1,7-diazaspiro[3.5]nonan-7-yl)sulfonyl)-4H-1,2,4-triazol-3-amine]: the IC50 on NLRP3 [1] is no more than 5000 nM; against NLRP3 [2], no more than 500 nM.

As to `COc1cc(-c2cc(F)cc(C(C)C)c2Oc2nnc(S(=O)(=O)N3CCC4(CCCN4C)CC3)[nH]2)ccn1` [Example 251, 8-((5-(4-fluoro-2-isopropyl-6-(2-methoxypyridin-4-yl)phenoxy)-4H-1,2,4-triazol-3-yl)sulfonyl)-1-methyl-1,8-diazaspiro[4.5]decane], the IC50 is no more than 5000 nM on NLRP3 [1] and no more than 500 nM at NLRP3 [2].

Turning to `O=S(=O)(c1nnc(Nc2c3c(cc4c2CCC4)CCC3)[nH]1)N1CCC2(CCN2C2CC2)CC1` [Example 254, 5-((1-cyclopropyl-1,7-diazaspiro[3.5]nonan-7-yl)sulfonyl)-N-(1,2,3,5,6,7-hexahydro-s-indacen-4-yl)-4H-1,2,4-triazol-3-amine], the IC50 at NLRP3 [1] is no more than 5000 nM; at NLRP3 [2], no more than 500 nM.

Consider `CCN1CCC12CCN(S(=O)(=O)c1nnc(Nc3c4c(cc5c3CCC5)CCC4)[nH]1)CC2` [Example 257, 5-((1-ethyl-1,7-diazaspiro[35]nonan-7-yl)sulfonyl)-N-(1,2,3,5,6,7-hexahydro-s-indacen-4-yl)-4H-1,2,4-triazol-3-amine], for which the IC50 on NLRP3 [1] and against NLRP3 [2] was no more than 500 nM each time.

For the molecule `COc1cc(-c2ccc3c(c2Nc2nnc(S(=O)(=O)N4CCC5(CCCN5C)CC4)[nH]2)CCC3)ccn1` [Example 258, N-(5-(2-methoxypyridin-4-yl)-2,3-dihydro-1H-inden-4-yl)-5-((1-methyl-1,8-diazaspiro[4.5]decan-8-yl)sulfonyl)-4H-1,2,4-triazol-3-amine], the IC50 is no more than 1000 nM on NLRP3 [1] and no more than 500 nM at NLRP3 [2].

Regarding `COc1cc(-c2cc(F)cc(C(C)C)c2Nc2nnc(S(=O)(=O)N3CCC4(CCCN4C)CC3)[nH]2)ccn1` [Example 260, N-(4-fluoro-2-isopropyl-6-(2-methoxypyridin-4-yl)phenyl)-5-((1-methyl-1,8-diazaspiro[4.5]decan-8-yl)sulfonyl)-4H-1,2,4-triazol-3-amine], the results for the IC50 on NLRP3 [1] and against NLRP3 [2] were no more than 5000 nM and no more than 500 nM, respectively.

Turning to `COc1cc(-c2cc(F)cc(C(C)C)c2Nc2nnc(S(=O)(=O)N3CCC(N(C)C)CC3)[nH]2)ccn1` [Example 261, 1-((5-((4-fluoro-2-isopropyl-6-(2-methoxypyridin-4-yl)phenyl)amino)-4H-1,2,4-triazol-3-yl)sulfonyl)-N,N-dimethylpiperidin-4-amine], the IC50 on NLRP3 [1] is no more than 1000 nM; at NLRP3 [2], no more than 500 nM.

On to `CN1CCC2(CC1)CN(S(=O)(=O)c1nnc(Nc3c4c(cc5c3CCC5)CCC4)[nH]1)C2` [Example 275, N-(1,2,3,5,6,7-hexahydro-s-indacen-4-yl)-5-((7-methyl-2,7-diazaspiro[3-5]nonan-2-yl)sulfonyl)-4H-1,2,4-triazol-3-amine], for which the half-maximal inhibitory concentration (IC50) on NLRP3 [1] was no more than 1000 nM; on NLRP3 [2], no more than 5000 nM.

The values are drawn from patent US20210261512A1, “NOVEL COMPOUNDS” (INFLAZOME LIMITED, priority 2018, published 2021).
